From US20060135440A1, “Use of ribose to alleviate rhabdomyolysis and the side effects of statin drugs” (priority 2004, published 2006)

What was measured:
Format in all cases: in vivo, human
[1] = tested on: patients with clinical statin-induced myalgias; assay: Placebo-controlled pilot study of ribose on muscle pain in patients with statin-induced myalgias; settings: for Severity of symptoms, Mean (sd): scale 1=mild to 5=severe
Excerpt: Thirty patients aged 20 to 80 years of age presently taking statins and showing clinical statin-induced myalgias were randomized in a six-week placebo-controlled study of the effect of ribose on muscle pain. Fifteen patients were given five grams of ribose twice a day to determine the improvement in clinical symptoms, using an objective patient questionnaire and physician interview. The primary symptom reported was muscle pain, but other symptoms commonly reported included fatigue, poor sleep, a decrease in mental clarity and a reduced sense of well-being. Fifteen patients presently taking statins were given five grams of glucose twice a day as a control. All patients were given a complete history and physical exam. The patient's assessment of muscle pain, soreness or cramping was graded on a scale of one to five, five being the most severe.
Exclusions: Statin-induced myopathy with elevated CPJK over twice normal • Statin-induced hepatopathy with elevated LFTs over twice normal Pregnancy • Insulin-dependant diabetes • Diseases known to be associated with myalgias, such as fibromyalgia, PMR, CTD, genetic or acquired myopathies • New drugs or supplements during the study period
Inclusions: • Patients on any FDA-approved statin at recommended doses. • Constant use of statin dose and any other drugs for at least four weeks prior to study entry
Ribose or glucose were given as a pill or powder and compliance was monitored by pill count or powder measurement on each visit, weekly during the four week study period. A questionnaire was developed to validate the study results.
The severity of symptoms were compared at each follow-up visit. Subjects were asked to rate the severity of symptoms on a scale from 1 to 5; 1=mild and 5=severe.

[2] = tested on: patients with chronic fatigue syndrome or fibromyalgia syndrome; assay: Pre- and post-ribose Visual Analog Scale assessment in chronic fatigue syndrome or fibromyalgia syndrome patients
Excerpt: There is a cluster of diseases of unknown etiology that share some common symptoms. Included in this cluster are chronic fatigue syndrome, fibromyalgia syndrome and statin-induced myalgia. The most prominent symptoms is pain in the muscles, accompanied by pain in connective tissue (fibromyalgia), sleep disturbance, lack of mental clarity and feelings of well-being. In addition to the patients of Example 1 and 2, who presented with statin-induced myalgia, a mixed cohort of patients having given a physician's diagnosis of chronic fatigue syndrome or fibromyalgia syndrome were given a supply of D-ribose for self administration. Each patient served as his or her control, the results being reported as pre- and post-ribose administration. Compliance was estimated by the amount of the ribose supply remaining. Those patients having administered at least one-half of the 280 grams supply were included in the following summary. A total of 41 subjects were enrolled, of whom five were considered non-compliant and excluded from these analyses. Of the remaining 36 subjects, 78% were female, average age 48 years; 58% and 85% had been previously diagnosed with fibromyalgia and/or chronic fatigue syndrome. Twenty-nine subjects (81%) took a B-complex vitamin daily. The average length of time taking ribose was 25 days. The primary outcome measure was the initial versus final visit Visual Analog Scale (VAS) score: • 1. Visual Analog (well-being) Scale of 1-10 for five questions obtained before the first and after the last dose of ribose. • (A) How is your energy? (1=near dead and 10+excellent) • (B) How is your sleep? (1=no sleep and 10=8 hours of sleep a night without waking. • (C) How is your mental clarity? (1=brain dead and 10=good clarity) • (D) How bad is your pain? (1=very severe pain and 10=pain free) • (F) How is your overall sense of well-being? (1=near dead and 10=excellent) On taking the final dose, the patient was also asked in fill in: “much better, somewhat better, no change, somewhat worse and much worse.” The patients were also asked to comments on benefits or side effects. If they felt better, about how long did it take to feel better? Since the compliance was ascertained only by the amount of ribose remaining, the patients were asked to comment in more detail on their guesstimate of doses missed.

[3] = tested on: statin drug-induced rhabdomyolysis patient; assay: Patient with drug-induced rhabdomyolysis given ribose (case report)
Excerpt: They were started on a statin drug. Within three months they were diagnosed with rhabdomyolysis resulting in chronic renal failure and symptoms of extreme fatigue and muscle pain. The patient was placed on five grams of ribose, twice daily, after symptoms had persisted for about four months. […] They stayed on the regimen for about three months. Upon cessation of ribose administration, the fatigue and pain slowly returned, but not as severe as had been previously experienced.

[4] = individualized response, ribose n = 12
[5] = person, five grams of ribose twice daily, within one week

## O=C[C@H](O)[C@H](O)[C@H](O)CO [Ribose, D-ribose]
[1]; Week 1, n = 15
  Severity of symptoms, Mean (sd): 3.7 (0.8)
[1]; Week 2, n = 13
  Severity of symptoms, Mean (sd): 3.9 (0.8)
[1]; Week 3, n = 12
  Severity of symptoms, Mean (sd): 3.7 (0.8)
[1]; Week 4, n = 12
  Severity of symptoms, Mean (sd): 3.6 (1.0)
[1]; Week 5, wash out period, n = 9
  Severity of symptoms, Mean (sd): 3.4 (1.0)
[1]; Week 6, wash out period, n = 8
  Severity of symptoms, Mean (sd): 3.7 (0.8)
[1]; baseline, scale 1 to 5, placebo group 3.0
  severity of symptoms at baseline: 3.7
[1]; five grams ribose twice a day, 11 of 13 ribose patients, placebo 3 of 14 (21%)
  global assessment of symptom improvement: patients classified as Improved: 85%
[1]; four weeks, 10 of 12 remaining ribose patients, placebo 5 of 14 (36%), p=0.02
  patients reporting a change in symptoms at end of test period: 83%
[1]; [4]
  patients with More than 50% improvement: 36%
  patients with No improvement or worse: 27%
  patients with Some improvement: 73%
[1]; individualized response, ribose n = 12, listed as ribose
  patients with No improvement or worse: 27%
[1]; repeated measures analysis adjusted for baseline severity difference, p=0.35
  average improvement greater than the placebo group: 0.10 units per week
[2]; 23 of the 35 patients answering the general question
  patients experiencing at least some improvement during the study: 65.7%
[2]; 36 patients, post-ribose, scale 1-10, pre-ribose 3.8 (1.1), average 25 days on ribose
  VAS Energy, Post- Mean (std): 5.5 (1.5)
[2]; 36 patients, post-ribose, scale 1-10, pre-ribose 4.3 (1.3)
  VAS Well-being, Post- Mean (std): 5.6 (1.5)
[2]; 36 patients, post-ribose, scale 1-10, pre-ribose 4.8 (1.6)
  VAS Sleep, Post- Mean (std): 6.0 (1.9)
[2]; 36 patients, post-ribose, scale 1-10, pre-ribose 4.9 (1.5)
  VAS Mental Clarity, Post- Mean (std): 5.7 (1.7)
[2]; 36 patients, post-ribose, scale 1=very severe pain, 10=pain free, pre-ribose 4.9 (2.3)
  VAS Pain, Post- Mean (std): 5.6 (2.2)
[2]; general question at final dose
  patients reporting no change to somewhat worse than at the beginning of the study: three
[3]; [5]
  fatigue (patient report): greatly reduced
  muscle pain (patient report): gone
[3]; ribose resumed a month after cessation, fatigue and pain had slowly returned
  symptoms after returning to the ribose regimen: again experienced relief of symptoms
